Reference: US8163700B2, “Inhibitors of myelin-associated glycoprotein (MAG) activity for regulating neural growth and regeneration” (Research Foundation of City University of New York, priority 2002, dated 2012)
Changes are numbered by the printed parent chain. Numbers in names are those of the source. Entries after “also recorded” stand apart in the source; their conditions may differ.

B1: MAG(K435E)-Fc: murine MAG-Fc with point mutation K435E, Ig domain 5 (protein, listed as Mus sp.)
chain: MIFLATLPLFWIMISASRGGHWGAWMPSTISAFEGTCVSIPCRFDFPDELRPAVVHGVWYFNSPYPKNYPPVVFKSRTQVVHESFQGRSRLLGDLGLRNCTLLLSTLSPELGGKYYFRGDLGGYNQYTFSEHSVLDIVNTPNIVVPPEVVAGTEVEVSCMVPDNCPELRPELSWLGHEGLGEPTVLGRLREDEGTWVQVSLLHFVPTREANGHRLGCQAAFPNTTLQFEGYASLDVKYPPVIVEMNSSVEAIEGSHVSLLCGADSNPPPLLTWMRDGMVLREAVAKSLYLDLEEVTPGEDGVYACLAENAYGQDNRTVELSVMYAPWKPTVNGTVVAVEGETVSILCSTQSNPDPILTIFKEKQILATVIYESQLQLELPAVTPEDDGEYWCVAENQYGQRATAFNLSVEFAPIILLESHCAAARDTVQCLCVVESNPEPSVAFELPSRNVTVNETEREFVYSERSGLLLTSILTIRGQAQAPPRVICTSRNLYGTQSLELPFQGAHRLMWAKIGPVGAVVAFAILIAIVCYITQTRRKKNVTESSSFSGGDNPHVLYSPEFRISGAPDKYESREVSTRDCH
modifications: Fc fusion
B2: MAG(R485D)-Fc: murine MAG-Fc with point mutation R485D, Ig domain 5 (protein, listed as Mus sp.)
chain: B1 chain with E435K, R485D
modifications: Fc fusion
B3: MAG(E445K)-Fc: murine MAG-Fc with point mutation E445K, Ig domain 5 (protein, listed as Mus sp.)
chain: B1 chain with E435K, E445K
modifications: Fc fusion
B4: MAG(R491E)-Fc: murine MAG-Fc with point mutation R491E, Ig domain 5/TM (protein, UniProt P20917 20-516, looked up, variant R491E)
extracellular domain: GHWGAWMPSTISAFEGTCVSIPCRFDFPDELRPAVVHGVWYFNSPYPKNYPPVVFKSRTQVVHESFQGRSRLLGDLGLRNCTLLLSTLSPELGGKYYFRGDLGGYNQYTFSEHSVLDIVNTPNIVVPPEVVAGTEVEVSCMVPDNCPELRPELSWLGHEGLGEPTVLGRLREDEGTWVQVSLLHFVPTREANGHRLGCQAAFPNTTLQFEGYASLDVKYPPVIVEMNSSVEAIEGSHVSLLCGADSNPPPLLTWMRDGMVLREAVAKSLYLDLEEVTPGEDGVYACLAENAYGQDNRTVELSVMYAPWKPTVNGTVVAVEGETVSILCSTQSNPDPILTIFKEKQILATVIYESQLQLELPAVTPEDDGEYWCVAENQYGQRATAFNLSVEFAPIILLESHCAAARDTVQCLCVVKSNPEPSVAFELPSRNVTVNETEREFVYSERSGLLLTSILTIRGQAQAPPRVICTSENLYGTQSLELPFQGAHRLMWAKIGP
modifications: extracellular domain Fc fusion
notes: murine MAG-Fc with point mutation R491E, Ig domain 5/TM

How the values were obtained:
[1] = system: cerebellar neurons on CHO cells expressing MAG; experiment: Neurite outgrowth on MAG-expressing CHO cells in the presence of MAG peptides (FIGS. 4 and 5); assay type: cell-based; conditions: for attenuation of inhibition of neurite outgrowth by MAG: peptide 20 μM, 18 hours, FIG. 5; for effect on the ability of MAG-expressing cells to inhibit neurite outgrowth / neurite length relative to neurites extended without peptide or with MAG Igd4 peptides: peptide 15 μM, overnight, FIG. 4; for neurite length relative to neurites extended without peptide or with MAG Igd4 peptides: neurons on MAG-expressing cells
Method: FIG. 4 Inhibition of neurite outgrowth from cerebellar neurons by MAG; peptides Cerebellar neurons were isolated (Example 1) and grown overnight on a monolayer of control-transfected CHO cells (not shown) or CHO cells expressing MAG in the absence (striped bar) or the presence (grey bars) of MAG peptides (15 μM) derived from MAG Ig-like domain 4 or 5. Neurons were stained for GAP-43 antigen and neurite length was measured. Results are shown as number of neurons in each treatment having neurites longer than two times the length of the cell body.
FIG. 5 Inhibition of neurite outgrowth from cerebellar neurons by MAG peptides Cerebellar neurons were isolated (Example 1) and grown for 18 hrs on a monolayer of control-transfected CHO cells (R2) or CHO cells expressing MAG in the absence of a peptide (MAG) or in the presence of a peptide derived from sialoadhesin Ig-like domain 5 (non-MAG “control peptide”) or a MAG peptide (M433 or M462 at 20 μM) derived from MAG Ig-like domain 5. Neurons were stained for GAP-43 antigen and neurite length was measured and the average length was calculated for 180-200 neurons (+/−SEM).
Confluent monolayers of control, MAG-, truncated MAG- or chimeric MAG-Sn-expressing CHO cells were established over a 24-hour (h) period in individual chambers of an 8-well tissue culture slide (Lab-Tek). Co-cultures were established as described previously (Doherty et al., Nature, 343, pp. 464-66 (1990); Neuron, 5, pp. 209-19 (1990); Mukhopadhyay et al., Neuron, 13, pp. 757-67 (1994)) by adding approximately 5000 cerebellar neurons to the CHO monolayers. Culture medium was SATO containing 2% FCS. After periods of time as indicated, the co-cultures were fixed for 30 minutes (min) with 4% paraformaldehyde and permeabilized with ice-cold methanol for 2 min. The cells were then blocked for 30 min with DMEM containing 10% FCS and incubated for 2 h with a rabbit polyclonal antibody against the neuronal marker GAP43 (1:4000). Cells were washed three times with PBS-BSA (2%) and then incubated for 30 min at room temperature with a biotinylated donkey anti-rabbit Ig (1:300, Amersham), washed three times, and incubated with streptavidin-conjugated Texas Red (1:300, Amersham) for 30 min. After three more washes, the slides were mounted in Permfluor (Baxter) and viewed with a Zeiss fluorescent microscope. The length of the longest neurite for each GAP43-positive neuron was determined using the Biological Detection System image analysis program (Pittsburgh).
Peptides corresponding to amino acid residues […] of MAG (MAG(343-371)), amino acid residues 363-397 (MAG(363-397)), amino acid residues 394-428 (MAG(394-428)), amino acid residues 422-451 (MAG(422-451)), amino acid residues 442-471 (MAG(442-471)), and amino acid residues 461-498 (MAG(461-498)) were synthesized. Peptides were obtained from SynPep Corp. (Dublin, Calif.). MAG(343-371), MAG(363-397) and MAG(394-428) correspond to amino acid residues from the Ig4 domain of MAG. MAG(422-451), MAG(442-471) and MAG(461-498) corresponds to amino acid residues from the Ig5 domain of MAG. […] Results are shown in FIG. 4 (and are represented as number of neurons with processes longer than 2-times the cell diameter). […] Results are shown in FIG. 5 (and are represented as average neurite length for 180-200 neurons).

cerebellar neurons = experiment: Neurite outgrowth on L1-Fc substrate in the presence of soluble MAG-Fc chimeras (FIG. 3); assay type: cell-based; conditions: soluble protein 25 μg/ml, 18 hours, compared to control chimera
Method: FIG. 3 Inhibition of neurite outgrowth from cerebellar neurons by MAG-Fc Derivatives Cerebellar neurons were isolated (Example 1) and plated onto a growth promoting substrate of L1 protein (Example 4). A control MUC-Fc fusion (clear bar), wild-type MAG-Fc (striped bar) and MAG-Fc derivatives having point mutations in MAG Ig-like domains 4 or 5 (grey bars) were constructed (Example 4) and added in soluble form to neurons (25 μg/ml). After 18 hours, cultures were fixed and stained for GAP-43 antigen. Neurite length was measured and the average length was calculated for 180-200 neurons (+/−SEM).
Individual wells of an eight-chamber tissue culture plastic slide (Lab-Tek, Nuc. Inc.) were incubated with 0.3 nil of 16.6 μg/ml poly-1-lysine in sterile water for at least one hour under sterile conditions. Each well was washed twice with 400 μl of a 0.1M sodium bicarbonate solution, pH 9.6, and then received 0.3 ml of 0.1M sodium bicarbonate solution, pH 9.6, containing 15 μg/ml goat anti-human IgG (Fc-specific) monoclonal antibody (Sigma). The wells were incubated for 2 hours (h) at 37° C., and washed three times with 0.4 ml of ice-cold DMEM. Each well then received 0.3 nil of DMEM containing 40 μg/ml of L1-Fc and was incubated for 2-4 h at 37° C. The welts were washed twice DMEM.
Cerebellar neurons (post-natal days 2-7) were dissociated by trypsinization as described in Example 1, except that the dissociated neurons were resuspended in 5 ml of SATO medium containing 2% dialyzed FBS. To an individual well coated with a monolayer of L1-Fc as described above, 5.0×10^4 cerebellar neurons were added, followed by addition of one of the mutant MAG-Fc or MUC18-Fc chimeric soluble protein described above at a concentration of 25 μg/ml. Neurons were cultured for 18 hours at 37° C., and then fixed and stained for GAP43 essentially as described in Example 2. Neurite length was measured for 180-200 neurons.

Molecule	effect on the ability of MAG-expressing cells to inhibit neurite outgrowth [1]	inhibition of neurite outgrowth (in words) (cerebellar neurons)	further results
M433: peptide of MAG amino acid residues 433-457 (SEQ ID NO: 20) (VVKSNPEPSVAFELPSRNVTVNETE)			attenuation of inhibition of neurite outgrowth by MAG [1]: even more strongly attenuated inhibition by MAG
M462: peptide of MAG amino acid residues 462-486 (SEQ ID NO: 24) (YSERSGLLLTSILTLRGQAQAPPRV)			attenuation of inhibition of neurite outgrowth by MAG [1]: even more strongly attenuated inhibition by MAG
MAG(422-451): peptide of MAG amino acid residues 422-451 (SEQ ID NO: 15) (AAARDTVQCLCVVKSNPEPSVAFELPSRNV)	strongly attenuated inhibition by MAG		neurite length relative to neurites extended without peptide or with MAG Igd4 peptides [1]: at least twice as long
MAG(442-471): peptide of MAG amino acid residues 442-471 (SEQ ID NO: 16) (VAFELPSRNVTVNETEREFVYSERSGLLLT)	strongly attenuated inhibition by MAG		neurite length relative to neurites extended without peptide or with MAG Igd4 peptides [1]: at least twice as long
MAG(461-498): 38 amino acid peptide of MAG residues 461-498 (SEQ ID NO: 23) (VYSERSGLLLTSILTLRGQAQAPPRVICTSRNLYGTQS)	no apparent effect on inhibition of neurite outgrowth by MAG; also recorded: does not reduce the ability of wild-type MAG to inhibit neurite outgrowth		
B1		none	
B2		none	
B3		none	
B4		none	
